Reference: patent EP4799619A1, “COMPOUND TARGETING EGR-1 AND USE THEREOF FOR TREATMENT OF ATOPIC DERMATITIS” (AgeraMedi, Inc., priority 2023, dated 2025)

Assays:
EGR-1 [1] = target: T1, EGR-1 (Homo sapiens, UniProt P18146); assay: EGR-1 DNA binding activity assay (EDBA); design: made in house; settings: EGR-1 DNA binding inhibitory activity; EGR-1 overexpressing cell lysate; absorbance at 450 nm; compound concentration not given
Procedure, shortened: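 Compound pre-incubated 30 min at room temperature with EGR-1-overexpressing cell lysate (10 mM Tris pH 7.5, 50 mM KCl, 2% BSA, 8% glycerol), then 1 h on avidin-immobilised biotin-EBS duplex DNA. Bound EGR-1 detected by antibody ELISA with HRP/TMB at 450 nm; % inhibition versus lysate-only wells.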

EGR-1 [2] = target: T1, EGR-1; assay: Electrophoretic mobility shift assay (EMSA) of EGR-1 DNA binding; design: made in house; host or cells: Sf21 insect cells (crude cell extract); settings: EGR-1 overexpressing Sf21 cell extract, biotin-labeled probe; FIG. 13
Protocol: When a nucleic acid and a protein are bound to each other, the complex of the nucleic acid and the protein moves more slowly than the nucleic acid alone, so that in an EMSA, a band of the nucleic acid bound to the protein appears higher than a band of only the nucleic acid.
In detail, the protein-DNA binding was analyzed by purchasing a LightShift Chemiluminescence EMSA kit (ThermoFisher Scientific, Waltham, MA, USA). The probe sequence for EGR-1 was synthesized by Macrogen company (Seoul, Korea) by ordering a deoxynucleotide labeled with biotin at the EGR-1 binding sequence (5'-biotin-AGAGTGTGTCTCCTTCGCACACATC-3'). The EGR-1 protein used in the experiment was an Sf21 insect cell extract overexpressing human EGR-1 protein as described in Yeo et al. [Journal of Investigative Dermatology 2021; 141:1851-1855]. Wild-type Sf21 cell extract was used as a negative control. After reacting 3 µg of EGR-1 overexpressing Sf21 cell extract, 1 µl of the compound of the present invention at a concentration of 20 mM, 50 fmol of the biotin-labeled EGR-1 binding deoxyoligonucleotide probe, and 1 µg poly(dI-dC) (Amersham Pharmacia Biotech Inc) for 20 minutes, electrophoresis was performed on a 6% non-denaturing polyacrylamide gel. The electrophoresed sample was transferred to a nylon membrane (Immobilon-Ny+ Transfer membrane, Millipore) and soaked in 5% skim milk solution for 30 minutes. Then, horseradish peroxidase-conjugated streptavidin was added and reacted for 15 minutes, and after washing unbound proteins from the membrane, the EGR-1-DNA complex was detected on X-ray film using an enhanced chemiluminescence (ECL) detection system (ThermoFisher Scientific). The intensity of the EGR-1-DNA complex band was analyzed using the ImageJ program (National Institute of Health, USA), and the intensity of the sample without the compound was set to 100%, and relative intensities were measured.

IL-1β = assay: RT-PCR of EGR-1 target gene mRNA in TNFα-stimulated HaCaT cells: IL-1β; type: cell-based, human; settings: 0, 5, 10, and 20 µM for 30 minutes, then TNFα 10 ng/mL for 12 hours, FIG. 14
Protocol: (§1) To determine whether the compounds of the present invention (Compounds 21, 23, and 25) inhibit expression of TSLP, IL-1β, and IL-6 genes, which are EGR-1 target genes playing a key role in atopic dermatitis exacerbation, the inhibitory effect of the compounds on mRNA expression of an EGR-1 target gene TSLP was evaluated by reverse transcription-polymerase chain reaction (RT-PCR) in HaCaT keratinocyte cells.
(§2) Specifically, HaCaT keratinocyte cells (purchased from Cell Lines Service, Eppelheim, Germany) were passaged at a seeding density of 1x10^6 cells per 100 mm cell culture dish in Dulbecco's modified Eagle's medium (Invitrogen Life Technologies) containing 10% fetal bovine serum (Invitrogen Life Technologies) and antibiotic-antifungal agent mix solution (Invitrogen Life Technologies), once every two days, and cultured at 37 °C in a 5% CO2 incubator.
(§3) HaCaT cells were treated with the compounds of the present invention (Compound 21, Compound 23, and Compound 25) at concentrations of 0, 5, 10, and 20 µM, respectively, for 30 minutes, followed by treatment with TNFα in a concentration of 10 ng/mL for 12 hours, after which the cells were harvested. Total RNA was extracted using TRIzol RNA isolation reagents (TRIzol Life Technologies Korea). A total of 0.5 µg of total RNA was reverse transcribed to synthesize complementary DNA (cDNA) according to the method recommended by the manufacturer using an iScript cDNA synthesis kit (Bio-Rad, Hercules, Calif., U.S.A.). PCR was performed using 0.0125 µg of double-stranded cDNA.
(§4) Glyceraldehyde-3-phosphate dehydrogenase (GAPDH), a housekeeping gene, was used as the control group. The double-stranded cDNA was denatured at 95 °C for 5 minutes and then subjected to cycles of reaction at 94 °C for 1 minute, 65 °C for 2 minutes, and 70 °C for 1 minute, repeated 30 times. The final product of PCR was electrophoresed on 1% agarose gel, stained with ethidium bromide (EtBr), and confirmed.

TSLP = assay: RT-PCR of EGR-1 target gene mRNA in TNFα-stimulated HaCaT cells: TSLP; type: cell-based, human; settings: 0, 5, 10, and 20 µM for 30 minutes, then TNFα 10 ng/mL for 12 hours, FIG. 14
Protocol: as §1, §2, §3, §4

IL-6 = assay: RT-PCR of EGR-1 target gene mRNA in TNFα-stimulated HaCaT cells: IL-6; type: cell-based, human; settings: 0, 5, 10, and 20 µM for 30 minutes, then TNFα 10 ng/mL for 12 hours, FIG. 14
Protocol: as §1, §2, §3, §4

[3] = test system: animal model of atopic dermatitis; assay: DNCB-induced animal model of atopic dermatitis, topical application; type: in vivo, BALB/c mice; settings: 0.1% applied to ear; for epidermal thickness / dermal thickness: day 22, H&E staining; for epidermal thickness: normal 24.47±2.353, DNCB only 37.27±4.393; for dermal thickness: normal 143.2±19.61, DNCB only 197.5±17.83; for macroscopic skin condition: day 22, FIG. 15B; for expression of filaggrin / expression of TSLP: immunofluorescence of skin tissue; for expression of filaggrin: FIG. 17B; for expression of TSLP: compared to positive control group, FIG. 17A; for expression of MPO (neutrophil marker) / expression of F4/80 (macrophage marker): immunohistochemistry; for expression of MPO (neutrophil marker): FIG. 16C; for expression of F4/80 (macrophage marker): FIG. 16D; for mast cell infiltration / number of mast cells infiltrated: toluidine blue staining; for mast cell infiltration: compared to the positive control group, FIG. 16A; for number of mast cells infiltrated: normal 11±3, DNCB 38±6

T1 sequence (P18146 whole entry): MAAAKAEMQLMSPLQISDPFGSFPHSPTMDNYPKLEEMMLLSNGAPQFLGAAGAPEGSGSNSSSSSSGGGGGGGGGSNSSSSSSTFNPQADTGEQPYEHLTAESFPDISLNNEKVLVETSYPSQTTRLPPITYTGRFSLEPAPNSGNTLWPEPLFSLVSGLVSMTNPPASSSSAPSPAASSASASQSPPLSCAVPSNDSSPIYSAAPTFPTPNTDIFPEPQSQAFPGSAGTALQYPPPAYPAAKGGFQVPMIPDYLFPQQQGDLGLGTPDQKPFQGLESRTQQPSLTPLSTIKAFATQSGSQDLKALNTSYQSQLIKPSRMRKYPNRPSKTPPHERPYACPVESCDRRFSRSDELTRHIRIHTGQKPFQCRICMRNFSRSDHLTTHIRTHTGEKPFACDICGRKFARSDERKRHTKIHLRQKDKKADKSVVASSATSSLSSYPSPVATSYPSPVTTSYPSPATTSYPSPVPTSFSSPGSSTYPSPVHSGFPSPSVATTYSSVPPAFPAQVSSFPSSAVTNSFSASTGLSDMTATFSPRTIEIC

## COc1ccc2c(c1)NC(=O)/C2=N\NC(=S)Nc1cccc([N+](=O)[O-])c1 [Compound 23, (Z)-2-(6-methoxy-2-oxoindolin-3-ylidene)-N-(3-nitrophenyl)hydrazin-1-carbothioamide]
EGR-1 [1]
  Inhibition Rate (%): 67.63%
EGR-1 [2]
  DNA binding of EGR-1 (EGR-1-DNA complex band): inhibited DNA binding of EGR-1 in a concentration-dependent manner
IL-1β
  expression level of IL-1β mRNA: decreased dose-dependently
TSLP
  expression level of TSLP mRNA: decreased dose-dependently
IL-6
  expression level of IL-6 mRNA: decreased dose-dependently
[3]
  epidermal thickness: 22.92±3.617 µm
  dermal thickness: 147.5±8.302 µm
  macroscopic skin condition: significant improvement in skin condition
  expression of filaggrin: recovered to a level similar to normal tissue
  expression of TSLP: significantly decreased
  expression of MPO (neutrophil marker): decreased similar to normal tissue
  expression of F4/80 (macrophage marker): decreased similar to normal tissue
  mast cell infiltration: significantly reduced
  number of mast cells infiltrated: 19±5 per 2.5 cm^2

## O=C1Nc2c(F)cccc2/C1=N/NC(=S)Nc1ccc(C(F)(F)F)cc1 [Compound 21, (Z)-2-(7-fluoro-2-oxoindolin-3-ylidene)-N-(4-(trifluoromethyl)phenyl)hydrazinethioamide]
EGR-1 [1]
  Inhibition Rate (%): 70.20%
EGR-1 [2]
  DNA binding of EGR-1 (EGR-1-DNA complex band): inhibited DNA binding of EGR-1 in a concentration-dependent manner
IL-1β
  expression level of IL-1β mRNA: decreased dose-dependently
TSLP
  expression level of TSLP mRNA: decreased dose-dependently
IL-6
  expression level of IL-6 mRNA: decreased dose-dependently
[3]
  epidermal thickness: 25.22±2.993 µm
  dermal thickness: 163.4±7.905 µm
  macroscopic skin condition: significant improvement in skin condition
  expression of filaggrin: recovered to a level similar to normal tissue
  expression of TSLP: significantly decreased
  expression of MPO (neutrophil marker): decreased similar to normal tissue
  expression of F4/80 (macrophage marker): decreased similar to normal tissue
  mast cell infiltration: significantly reduced
  number of mast cells infiltrated: 18±2 per 2.5 cm^2

## COc1ccc2c(c1)NC(=O)/C2=N\NC(=S)Nc1ccc(C#N)cc1 [Compound 25, (Z)-N-(4-cyanophenyl)-2-(6-methoxy-2-oxoindolin-3-ylidene)hydrazinethioamide]
EGR-1 [1]
  Inhibition Rate (%): 76.13%
EGR-1 [2]
  DNA binding of EGR-1 (EGR-1-DNA complex band): inhibited DNA binding of EGR-1 in a concentration-dependent manner
IL-1β
  expression level of IL-1β mRNA: decreased dose-dependently
TSLP
  expression level of TSLP mRNA: decreased dose-dependently
IL-6
  expression level of IL-6 mRNA: decreased dose-dependently
[3]
  epidermal thickness: 23.46±1.530 µm
  dermal thickness: 157.8±17.05 µm
  macroscopic skin condition: significant improvement in skin condition
  expression of filaggrin: recovered to a level similar to normal tissue
  expression of TSLP: significantly decreased
  expression of MPO (neutrophil marker): decreased similar to normal tissue
  expression of F4/80 (macrophage marker): decreased similar to normal tissue
  mast cell infiltration: significantly reduced
  number of mast cells infiltrated: 15±5 per 2.5 cm^2
